The experiment has as its system nude mice, HT29 intrarenal xenograft, tumor weight T/C. Kind of experiment: NCI In Vivo Anticancer Drug Screen. Data for tumor model HT29;CX-1 Human Adenocarcinoma (MER+) (intrarenal inoculation) in NU/NU Swiss (nude) mice. As to conditions: endpoint: mean tumor weight change, higher = larger tumour. Here is the method:
The antitumor activity of compounds was measured in mice bearing transplantable tumors. Survival or tumor size were measured and the results are expressed as the measurement made in the treated group (T) divided by the measurement made in the vehicle treated control group (C). The tumor model used in this assay is HT29;CX-1 Human Adenocarcinoma (MER+) (intrarenal inoculation) in NU/NU Swiss (nude) mice

The mark [1] stands for this setting: dose: 75.0 mg/kg/injection, schedule: Q04DX004 (sc), vehicle: saline with Tween-80.
The mark [2] stands for this setting: dose: 150.0 mg/kg/injection, schedule: Q04DX004 (sc), vehicle: saline with Tween-80.
[3] abbreviates: dose: 300.0 mg/kg/injection, schedule: Q04DX004 (sc), vehicle: saline with Tween-80.
[4] abbreviates: dose: 600.0 mg/kg/injection, schedule: Q04DX004 (sc), vehicle: saline with Tween-80.
[5] abbreviates: dose: 300.0 mg/kg/injection, schedule: Q04DX004 (sc), vehicle: saline.
Where [6] appears, read: dose: 600.0 mg/kg/injection, schedule: Q04DX004 (sc), vehicle: saline.
The mark [7] stands for this setting: dose: 1200.0 mg/kg/injection, schedule: Q04DX004 (sc), vehicle: saline with Tween-80.
Setting [8] is: dose: 50.0 mg/kg/injection, schedule: Q04DX004 (sc), vehicle: saline.
[9] abbreviates: dose: 100.0 mg/kg/injection, schedule: Q04DX004 (sc), vehicle: saline.
Where [10] appears, read: dose: 200.0 mg/kg/injection, schedule: Q04DX004 (sc), vehicle: saline.

Structures are written as SMILES. “And” between values parts separate entries of the source, which are not always exact repeats. Equal values may be shown once. Inconclusive results are not listed.

Take `Nc1ncnc2c1ncn2C1C=C(CO)C(O)C1O` (stereo not drawn): the T/C was 76 % of control (dose: 3.75 mg/kg/injection, schedule: Q04DX004 (sc), vehicle: saline); 103 % of control (dose: 7.5 mg/kg/injection, schedule: Q04DX004 (sc), vehicle: saline); 81 % of control (dose: 15.0 mg/kg/injection, schedule: Q04DX004 (sc), vehicle: saline).
As for `COc1ccc([I+]c2cccc(Cl)c2)cc1Cl`, the T/C is, setting by setting: (dose: 37.5 mg/kg/injection, schedule: Q04DX004 (sc), vehicle: saline with Tween-80) 67 % of control; under setting [1], 48 % of control; under setting [2], 58 % of control; under setting [3], 39 % of control; under setting [4], 64 % of control.
`COC(=O)NC1C(C)OC(OC2C/C=C(/C)C3C=CC4C(OC5CC(OC6CCC(OC7CC(O)C(OC8CCC(O)C(C)O8)C(C)O7)C(C)O6)C(OC(C)=O)C(C)O5)C(C)CC(C)C4C3(C)/C(O)=C3/C(=O)OC4(CC(C=O)=CC(O)C4/C=C\2C)C3=O)CC1(C)[N+](=O)[O-]` (stereo not drawn): the T/C is 92 % of control (dose: 12.5 mg/kg/injection, schedule: Q04DX004 (sc), vehicle: other); 103 % of control (dose: 25.0 mg/kg/injection, schedule: Q04DX004 (sc), vehicle: other); 51 % of control (dose: 50.0 mg/kg/injection, schedule: Q04DX004 (sc), vehicle: other).
With `C1CNCOC1`, the T/C is 123 % of control (dose: 75.0 mg/kg/injection, schedule: Q04DX004 (sc), vehicle: saline); 158 % of control (dose: 150.0 mg/kg/injection, schedule: Q04DX004 (sc), vehicle: saline); 91 % of control under setting [5]; 75 % of control under setting [6].
In the case of `CCCCCC1c2cc(O)ccc2OC1N1CCOCC1` (stereo not drawn), the T/C under setting [1] was 29 % of control; the T/C under setting [2] is 34 % of control; the T/C under setting [7] was 57 % of control; the T/C (dose: 2400.0 mg/kg/injection, schedule: Q04DX004 (sc), vehicle: saline with Tween-80) is 15 % of control.
Take `Cn1cnc([N+](=O)[O-])c1SCC(=O)O`: the T/C under setting [5] was 89 % of control; the T/C under setting [6] was 83 % of control; the T/C (dose: 1200.0 mg/kg/injection, schedule: Q04DX004 (sc), vehicle: saline) was 66 % of control; the T/C (dose: 2400.0 mg/kg/injection, schedule: Q04DX004 (sc), vehicle: saline) is 77 % of control.
With `CCC[CH2][Hg][Cl]`, the T/C (dose: 9.38 mg/kg/injection, schedule: Q04DX004 (sc), vehicle: Klucel (hydroxypropylcellulose) (HPC)) is 83 % of control; the T/C (dose: 18.75 mg/kg/injection, schedule: Q04DX004 (sc), vehicle: Klucel (hydroxypropylcellulose) (HPC)) was 72 % of control; the T/C (dose: 37.5 mg/kg/injection, schedule: Q04DX004 (sc), vehicle: Klucel (hydroxypropylcellulose) (HPC)) is 45 % of control.
On to `CCC1(O)CC2CN(CCc3c([nH]c4ccccc34)C(C(=O)OC)(c3cc4c(cc3OC)N(C)C3C(O)(C(=O)NCCSSCCNC(=O)C5(O)C(O)C6(CC)C=CCN7CCC8(c9cc(C%10(C(=O)OC)CC%11CN(CCc%12c%10[nH]c%10ccccc%12%10)CC(O)(CC)C%11)c(OC)cc9N(C)C58)C76)C(O)C5(CC)C=CCN6CCC43C65)C2)C1` (stereo not drawn), for which the T/C (dose: 0.38 mg/kg/injection, schedule: Q04DX004 (sc), vehicle: suspension in saline) was 85 % of control; the T/C (dose: 0.75 mg/kg/injection, schedule: Q04DX004 (sc), vehicle: saline) was 39 % of control; the T/C (dose: 0.75 mg/kg/injection, schedule: Q04DX004 (sc), vehicle: suspension in saline) is 84 % of control; the T/C (dose: 1.5 mg/kg/injection, schedule: Q04DX004 (sc), vehicle: saline) is 22 % of control and 29 % of control; the T/C (dose: 1.5 mg/kg/injection, schedule: Q04DX004 (sc), vehicle: suspension in saline) is 44 % of control; the T/C (dose: 3.0 mg/kg/injection, schedule: Q04DX004 (sc), vehicle: saline) is -5 % of control. For the same compound, the T/C (dose: 3.0 mg/kg/injection, schedule: Q04DX004 (sc), vehicle: suspension in saline) was 55 % of control and the T/C (dose: 6.0 mg/kg/injection, schedule: Q04DX004 (sc), vehicle: suspension in saline) is 51 % of control.
On to `O=S1(=O)C=C(c2ccccc2)C(c2ccccc2)=C1`, for which the T/C reads like this: under setting [2], 58 % of control; under setting [3], 83 % of control; under setting [4], 97 % of control; under setting [7], 85 % of control.
Regarding `O=[N+]([O-])/C=C\c1ccc2c(c1)OCO2`, the T/C (dose: 100.0 mg/kg/injection, schedule: Q01DX010 (sc), vehicle: Klucel (hydroxypropylcellulose) (HPC)) is 55 % of control; the T/C (dose: 400.0 mg/kg/injection, schedule: Q01DX010 (sc), vehicle: Klucel (hydroxypropylcellulose) (HPC)) is 163 % of control; the T/C (dose: 800.0 mg/kg/injection, schedule: Q01DX010 (sc), vehicle: Klucel (hydroxypropylcellulose) (HPC)) was 77 % of control.
For the compound `OCC1OC(n2cnc3cncnc32)C(O)C1O` (stereo not drawn), the T/C was 65 % of control (dose: 12.5 mg/kg/injection, schedule: Q04DX004 (sc), vehicle: saline); 77 % of control (dose: 25.0 mg/kg/injection, schedule: Q04DX004 (sc), vehicle: saline); 66 % of control under setting [8].
Turning to `COC1CC(CC2CCC(C)C(C(C)C(=O)O)O2)OC2(OC(C)(C3CCC(C)(C4OC(C5OC(O)(CO)C(C)CC5C)CC4C)O3)CC2C)C1C` (stereo not drawn), the T/C is 34 % of control (dose: 3.75 mg/kg/injection, schedule: Q04DX004 (sc), vehicle: Klucel (hydroxypropylcellulose) (HPC)) and 107 % of control (dose: 7.5 mg/kg/injection, schedule: Q04DX004 (sc), vehicle: Klucel (hydroxypropylcellulose) (HPC)).
For `CC(Cc1ccc(O)cc1)NCC(O)c1ccc(O)c(O)c1` (stereo not drawn), the T/C (dose: 100.0 mg/kg/injection, schedule: Q04DX004 (sc), vehicle: saline with Tween-80) was 106 % of control; the T/C (dose: 200.0 mg/kg/injection, schedule: Q04DX004 (sc), vehicle: saline with Tween-80) is 91 % of control; the T/C (dose: 400.0 mg/kg/injection, schedule: Q04DX004 (sc), vehicle: saline with Tween-80) was 89 % of control; the T/C (dose: 800.0 mg/kg/injection, schedule: Q04DX004 (sc), vehicle: saline with Tween-80) is 80 % of control.
In the case of `C=C1C(=O)C2=CC1CCC(=O)C1(C)CCC(OC(C)=O)C(C)(C)C1CC2O` (stereo not drawn), the T/C runs as follows: (dose: 60.0 mg/kg/injection, schedule: Q04DX004 (sc), vehicle: Klucel (hydroxypropylcellulose) (HPC)) 91 % of control; (dose: 120.0 mg/kg/injection, schedule: Q04DX004 (sc), vehicle: Klucel (hydroxypropylcellulose) (HPC)) 116 % of control.
Turning to `O=C(/C=C(\Cl)C(=O)NO)NO`, the T/C under setting [8] is 102 % of control, the T/C under setting [9] was 172 % of control and the T/C under setting [10] was 86 % of control.
In the case of `CCCCCCCC(=O)OCC(=O)[C@]1(O)Cc2c(O)c3c(c(O)c2[C@@H](OC2CC(N)C(O)C(C)O2)C1)C(=O)c1c(OC)cccc1C3=O` (stereo partly drawn), the T/C (dose: 2.0 mg/kg/injection, schedule: Q04DX004 (sc), vehicle: suspension in saline) was 90 % of control; the T/C (dose: 4.0 mg/kg/injection, schedule: Q01DX010 (sc), vehicle: suspension in saline) was 222 % of control; the T/C (dose: 4.0 mg/kg/injection, schedule: Q04DX004 (sc), vehicle: suspension in saline) was 50 % of control; the T/C (dose: 5.0 mg/kg/injection, schedule: Q04DX004 (sc), vehicle: suspension in saline) is 106 % of control; the T/C (dose: 8.0 mg/kg/injection, schedule: Q01DX010 (sc), vehicle: suspension in saline) is 67 % of control; the T/C (dose: 8.0 mg/kg/injection, schedule: Q04DX004 (sc), vehicle: suspension in saline) is 42 % of control. The T/C is 29 % of control (dose: 10.0 mg/kg/injection, schedule: Q04DX004 (sc), vehicle: suspension in saline); 33 % of control (dose: 16.0 mg/kg/injection, schedule: Q04DX004 (sc), vehicle: suspension in saline); 42 % of control (dose: 20.0 mg/kg/injection, schedule: Q04DX004 (sc), vehicle: suspension in saline).
`O=[N+]([O-])O.[Ga]`: the T/C reads like this: under setting [8], 99 % of control; under setting [9], 66 % of control; under setting [10], 80 % of control; (dose: 400.0 mg/kg/injection, schedule: Q04DX004 (sc), vehicle: saline) 103 % of control.

The record behind these values is PubChem BioAssay AID206 (DTP/NCI, 2004).
